Structures can show the parent of a compound that is named as a salt. Where only a bound is given, the exact number is not on record here.

Assay [1] addresses T1, Recombinant human IKKβ (residues 1-737) (Homo sapiens, UniProt O14920).
T1 construct: Recombinant human IKKβ (residues 1-737); GST (C); made in house
T1 sequence (O14920 1-737): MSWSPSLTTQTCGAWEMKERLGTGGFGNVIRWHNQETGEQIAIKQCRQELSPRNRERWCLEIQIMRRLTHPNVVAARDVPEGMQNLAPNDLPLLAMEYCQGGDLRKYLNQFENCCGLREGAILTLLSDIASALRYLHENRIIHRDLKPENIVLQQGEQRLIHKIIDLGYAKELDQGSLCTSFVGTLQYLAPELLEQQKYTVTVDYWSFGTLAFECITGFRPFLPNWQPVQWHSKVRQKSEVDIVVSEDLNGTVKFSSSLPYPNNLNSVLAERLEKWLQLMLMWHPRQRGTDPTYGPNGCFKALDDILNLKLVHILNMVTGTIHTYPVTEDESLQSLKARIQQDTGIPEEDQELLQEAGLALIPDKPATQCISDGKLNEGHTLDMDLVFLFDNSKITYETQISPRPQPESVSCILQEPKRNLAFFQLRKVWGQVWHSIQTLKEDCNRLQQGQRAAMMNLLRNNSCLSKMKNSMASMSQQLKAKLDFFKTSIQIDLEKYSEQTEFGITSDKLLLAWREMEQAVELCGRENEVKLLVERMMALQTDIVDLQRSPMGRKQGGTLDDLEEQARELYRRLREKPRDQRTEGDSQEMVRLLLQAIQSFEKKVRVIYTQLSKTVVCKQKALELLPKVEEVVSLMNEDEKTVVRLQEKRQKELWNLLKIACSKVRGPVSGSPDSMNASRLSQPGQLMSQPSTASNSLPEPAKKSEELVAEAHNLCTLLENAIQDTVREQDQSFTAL
Kind of assay: IKK2 assay (TR-FRET). The conditions noted are these: ATP 1 μM final, read-out: pIC50 against IKK2 (converted). The format is biochemical. A digest of the protocol:
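TR-FRET readout (665 nm over 620 nm Eu reference) of GST-IB Ser32/36 phosphorylation after 60 min detection. Reaction: 1 μM ATP, 25 nM substrate, 0.5-5 nM GST-fused IKKβ 1-737 from baculovirus, pH 7.4 HEPES buffer, 1.7% DMSO, 15 min room temperature, EDTA-terminated.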
Background: In TR-FRET formats the signal depends on donor and acceptor labels being close together.

Assay [2] relates to human monocyte stimulated cytokine production (TNF-α). Kind of assay: Monocyte assay (LPS-stimulated TNF-α production). The format is cell-based. The conditions noted are these: for IC50: 24 h, 200 ng/mL LPS, TNF-α by ELISA; for inhibition at 0.3 µM: read-out: inhibition at 300 nM in the monocyte assay. An outline of the steps: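 TNF-α release was measured by ELISA after 24 hrs at 37 C. Cells were stimulated with 200 ng/mL E. coli LPS, with compound added 30 minutes beforehand (0.1% DMSO vehicle). Cells were Ficoll/MACS-isolated CD14+ human monocytes adhered at 1×10^6 cells/mL, and viability was checked by trypan blue.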
In general terms: An ELISA detects its analyte on a solid surface through an enzyme-linked reagent.

Consider `CCS(=O)(=O)N1CCC(c2c[nH]c3c(C(N)=O)cc(-c4csc(CN(C)CC(C)C)c4)cc23)CC1` [Example 73, 3-[1-(ethylsulfonyl)-4-piperidinyl]-5-(5-{[methyl(2-methylpropyl)amino]methyl}-3-thienyl)-1H-indole-7-carboxamide trifluoroacetate], for which the results for the IC50 in assay [1] and in assay [2] were not above 10 µM and not above 1.5 µM, respectively.
Regarding `CCS(=O)(=O)N1CCC(c2c[nH]c3c(C(N)=O)cc(-c4csc(CN(C)Cc5ccccc5)c4)cc23)CC1` [Example 74, 3-[1-(ethylsulfonyl)-4-piperidinyl]-5-(5-{[methyl(phenylmethyl)amino]methyl}-3-thienyl)-1H-indole-7-carboxamide trifluoroacetate], in assay [1], the IC50 was not above 10 µM. In addition, the inhibition at 0.3 µM in assay [2] lay in the range of 0 to 60%.
For the compound `CCS(=O)(=O)N1CCC(c2c[nH]c3c(C(N)=O)cc(-c4csc(CN(C)CCO)c4)cc23)CC1` [Example 75, 3-[1-(ethylsulfonyl)-4-piperidinyl]-5-(5-{[(2-hydroxyethyl)(methyl)amino]methyl}-3-thienyl)-1H-indole-7-carboxamide trifluoroacetate], the IC50 in assay [1] is not above 10 µM; in assay [2], not above 1.5 µM.
For `CCS(=O)(=O)N1CCC(c2c[nH]c3c(C(N)=O)cc(-c4csc(CN(C)CCc5ccccn5)c4)cc23)CC1` [Example 76, 3-[1-(ethylsulfonyl)-4-piperidinyl]-5-[5-({methyl[2-(2-pyridinyl)ethyl]amino}methyl)-3-thienyl]-1H-indole-7-carboxamide trifluoroacetate], in that order: not above 10 µM and not above 1.5 µM.
As for `CCS(=O)(=O)N1CCC(c2c[nH]c3c(C(N)=O)cc(-c4csc(CN(C)Cc5ccco5)c4)cc23)CC1` [Example 77, 3-[1-(ethylsulfonyl)-4-piperidinyl]-5-(5-{[(2-furanylmethyl)(methyl)amino]methyl}-3-thienyl)-1H-indole-7-carboxamide trifluoroacetate], the figures for the IC50 in assay [1] and in assay [2] were not above 10 µM and not above 1.5 µM, respectively.
In the case of `CCS(=O)(=O)N1CCC(c2c[nH]c3c(C(N)=O)cc(-c4csc(CN(C)Cc5ccncc5)c4)cc23)CC1` [Example 78, 3-[1-(ethylsulfonyl)-4-piperidinyl]-5-(5-{[methyl(4-pyridinylmethyl)amino]methyl}-3-thienyl)-1H-indole-7-carboxamide trifluoroacetate], the IC50 was not above 10 µM in assay [1] and not above 1.5 µM in assay [2].
Turning to `CCS(=O)(=O)N1CCC(c2c[nH]c3c(C(N)=O)cc(-c4csc(CN(C)CC5CCN(C(C)C)C5)c4)cc23)CC1` (stereo not drawn) [Example 79, 3-[1-(ethylsulfonyl)-4-piperidinyl]-5-{5-[(methyl{[1-(1-methylethyl)-3-pyrrolidinyl]methyl}amino)methyl]-3-thienyl}-1H-indole-7-carboxamide trifluoroacetate], in assay [1], the IC50 is not above 10 µM. Besides, in assay [2], the inhibition at 0.3 µM was in the range of 0 to 60%.
As to `CCS(=O)(=O)N1CCC(c2c[nH]c3c(C(N)=O)cc(-c4csc(CN(C)Cc5cccs5)c4)cc23)CC1` [Example 80, 3-[1-(ethylsulfonyl)-4-piperidinyl]-5-(5-{[methyl(2-thienylmethyl)amino]methyl}-3-thienyl)-1H-indole-7-carboxamide trifluoroacetate], in assay [1], the IC50 is not above 10 µM. Moreover, in assay [2], the inhibition at 0.3 µM fell in the range of 0 to 60%.
Consider `CCS(=O)(=O)N1CCC(c2c[nH]c3c(C(N)=O)cc(-c4csc(CN(C)C(C)c5cccs5)c4)cc23)CC1` (stereo not drawn) [Example 81, 3-[1-(ethylsulfonyl)-4-piperidinyl]-5-[5-({methyl[1-(2-thienyl)ethyl]amino}methyl)-3-thienyl]-1H-indole-7-carboxamide trifluoroacetate], for which, in assay [1], the IC50 is not above 10 µM. Besides, the inhibition at 0.3 µM in assay [2] fell in the range of 0 to 60%.
As to `CCS(=O)(=O)N1CCC(c2c[nH]c3c(C(N)=O)cc(-c4csc(CN(C)Cc5ccsc5)c4)cc23)CC1` [Example 82, 3-[1-(ethylsulfonyl)-4-piperidinyl]-5-(5-{[methyl(3-thienylmethyl)amino]methyl}-1′-3-thienyl)-1H-indole-7-carboxamide trifluoroacetate], the IC50 was not above 10 µM in assay [1] and not above 1.5 µM in assay [2].
`CCS(=O)(=O)N1CCC(c2c[nH]c3c(C(N)=O)cc(-c4csc(CN(C)CC5CCOCC5)c4)cc23)CC1` [Example 83, 3-[1-(ethylsulfonyl)-4-piperidinyl]-5-(5-{[methyl(tetrahydro-2H-pyran-4-ylmethyl)amino]methyl}-3-thienyl)-1H-indole-7-carboxamide trifluoroacetate]: the IC50 was not above 10 µM in assay [1] and not above 1.5 µM in assay [2].
Turning to `CCS(=O)(=O)N1CCC(c2c[nH]c3c(C(N)=O)cc(-c4csc(CN(C)Cc5cccnc5)c4)cc23)CC1` [Example 84, 3-[1-(ethylsulfonyl)-4-piperidinyl]-5-(5-{[methyl(3-pyridinylmethyl)amino]methyl}-3-thienyl)-1H-indole-7-carboxamide trifluoroacetate], the IC50 in assay [1] is not above 10 µM. For the same compound, the inhibition at 0.3 µM in assay [2] lay within 0 to 60%.
As to `CCS(=O)(=O)N1CCC(c2c[nH]c3c(C(N)=O)cc(-c4csc(CN(C)Cc5ccncn5)c4)cc23)CC1` [Example 85, 3-[1-(ethylsulfonyl)-4-piperidinyl]-5-(5-{[methyl(4-pyrimidinylmethyl)amino]methyl}-3-thienyl)-1H-indole-7-carboxamide trifluoroacetate], the IC50 in assay [1] is not above 10 µM. In assay [2], the inhibition at 0.3 µM was in the range of 0 to 60%.
With `CCS(=O)(=O)N1CCC(c2c[nH]c3c(C(N)=O)cc(-c4csc(CN(C)CCOC)c4)cc23)CC1` [Example 86, 3-[1-(ethylsulfonyl)-4-piperidinyl]-5-[5-({methyl[2-(methyloxy)ethyl]amino}methyl)-3-thienyl]-1H-indole-7-carboxamide trifluoroacetate], the IC50 in assay [1] was not above 10 µM; in assay [2] it was not above 1.5 µM.
Consider `CCS(=O)(=O)N1CCC(c2c[nH]c3c(C(N)=O)cc(-c4csc(CN(C)C(C)C)c4)cc23)CC1` [Example 88, 3-[1-(ethylsulfonyl)-4-piperidinyl]-5-(5-{[methyl(1-methylethyl)amino]methyl}-3-thienyl)-1H-indole-7-carboxamide trifluoroacetate], for which the values for the IC50 in assay [1] and in assay [2] were not above 10 µM and not above 1.5 µM, respectively.
Take `CCCC1CCCN1Cc1cc(-c2cc(C(N)=O)c3[nH]cc(C4CCN(S(=O)(=O)CC)CC4)c3c2)cs1` (stereo not drawn) [Example 89, 3-[1-(ethylsulfonyl)-4-piperidinyl]-5-{5-[(2-propyl-1-pyrrolidinyl)methyl]-3-thienyl}-1H-indole-7-carboxamide]: the IC50 in assay [1] was not above 10 µM; in assay [2], not above 1.5 µM.
On to `CCS(=O)(=O)N1CCC(c2c[nH]c3c(C(N)=O)cc(-c4csc(CN5CCCC5c5cccnc5)c4)cc23)CC1` (stereo not drawn) [Example 90, 3-[1-(ethylsulfonyl)-4-piperidinyl]-5-(5-{[2-(3-pyridinyl)-1-pyrrolidinyl]methyl}-3-thienyl)-1H-indole-7-carboxamide], for which the IC50 in assay [1] was not above 10 µM. The inhibition at 0.3 µM in assay [2] fell in the range of 0 to 60%.
With `CCS(=O)(=O)N1CCC(c2c[nH]c3c(C(N)=O)cc(-c4csc(CN5CCCC5C(C)(C)C)c4)cc23)CC1` (stereo not drawn) [Example 91, 5-(5-{[2-(1,1-dimethylethyl)-1-pyrrolidinyl]methyl}-3-thienyl)-3-[1-(ethylsulfonyl)-4-piperidinyl]-1H-indole-7-carboxamide trifluoroacetate], the IC50 in assay [1] is not above 10 µM. Further, in assay [2], the inhibition at 0.3 µM fell in the range of 0 to 60%.

The term inhibition denotes the share of the control response that was lost under treatment.

The record behind these values is patent publication US8063071B2 (GlaxoSmithKline, LLC, priority 2007, dated 2011).
